The values that follow come from US9212205B2, “Nucleic acid binding compounds and methods of use” (University of Rochester, priority 2007, dated 2015).

The target of experiment [1] is (CUG) repeat RNA SEQ ID NO:7. Briefly: Filter binding assay (FBA), SEQ ID NO:7. The conditions noted are these: negative control; method (FBA or FT) not stated; read-out: KD for CUG repeat RNA (SEQ ID NO:7). The method, then:
A filter binding assay system was utilized to provide a rapid initial assessment of binding affinity. All binding studies were performed in PBS pH 7.2+1 mM MgCl2 at 22° C. Various concentrations of small molecules were incubated with 10 nM FAM-labeled RNA in a total volume of 50 μl for 20 minutes. A slot blot apparatus was then assembled with a wet nitrocellulose filter, on top of a wet nylon filter, on top of filter paper. 40 μl of each binding mixture was then loaded into an individual well of the apparatus and allowed to penetrate the filters for 10 minutes. The peptidic disulfides selected from the DCL efficiently bind to the nitrocellulose filter. In contrast, the FAM-labeled RNA strands penetrate the nitrocellulose filter and are bound by the nylon filter. As such, RNA bound by the peptidic library members remains bound on the nitrocellulose filter, and unbound RNA passes to the nylon filter.
Densitometric analysis of the ratio of labeled RNA on the nitrocellulose to nylon filters allows quantification of binding (FIG. 15A). All binding isotherms were fit to the logistic binding model (Equation 1 above). The repetitive nature of the target sequences may in some cases result in binding stoichiometries that are more complex than a simple 1:1 interaction.
To test specificity and to confirm the determined binding affinities, filter binding assays and fluorescence titrations were performed with SEQ ID NOS: 7-11 (Table 5), and the HIV-1 frameshift stimulating RNA hairpin used in preceding Examples (SEQ ID NO:1, Table 5). Fluorescence titrations were performed using a Varian Cary Eclipse spectrophotometer. 2 μl of 50 or 500 μM small molecule were titrated into 400 μl of FAM labeled RNA sequences an allowed to equilibrate for at least 10 minutes, or until no change in fluorescence spectra was observed. Changes in fluorescence emission at 518 nm (excitation at 490 nm) were measured. Raw data were corrected for dilution dependant changes, and Em518 was plotted against small molecule concentration and fit to the one site binding equation y=(bmaz*x)/(KD+x).) Competition experiments utilizing target RNA (SEQ ID NO:7) and a 20-fold molar excess of total yeast tRNA were performed to measure non-specific RNA binding (Luedtke et al., “RNA-Ligand Interactions: Affinity and Specificity of Aminoglycoside Dimers and Acridine Conjugates to the HIV-1 Rev Response Element,” Biochemistry 42:11391-11403 (2003), which is hereby incorporated by reference in its entirety). Compound 1-1, the HIV-1 RNA ligand, served as a negative control.

In experiment [2] the target is (CUG)109 RNA (SEQ ID NO:8)-MBNL1 protein interaction. Briefly: Enzyme Fragmentation Complementation (EFC) assay of (CUG)109-MBNL1 binding inhibition. In kind it is biochemical. Here is the method:
Small molecule-mediated inhibition of (CUG)109-MBNL1 binding was determined using an Enzyme Fragmentation Complementation (EFC) assay (Eglen et al., “β-Galactosidase Enzyme Fragment Complementation as A Novel Technology for High Throughput Screening,” Comb. Chem. High Throughput Screening 6:381-387 (2003), which is hereby incorporated by reference in its entirety). Briefly, this was performed by first immobilizing (CUG)109 RNA (SEQ ID NO:8) to a 96 well plate. Next, the immobilized RNA was incubated with recombinant MBNL1 fused to the PL enzyme donor peptide (PL-MBNL1, where “PL” is the commercial “ProLabel” enzyme donor peptide) (DiscoveRx PathHunter ProLabel Detection kit) in the presence of varying concentrations of small molecule inhibitor. The Enzyme Acceptor (EA-β-galactosidase) complement was then added, and the activity of the resulting plate—(CUG)109 bound (PL-MBNL1)-(EA-β-galactosidase) activity was monitored via a chemiluminsecent substrate. Only the EA-β-Gal bound to the PL-MBNL1 is capable of performing the luminescent reaction and, as such, any luminescence correlates to the amount of MBNL1 bound to the (CUG)109 immobilized on the plate. Wells lacking (CUG)109 RNA served as a background measure of non-specific luminescence and were subtracted from each experiment to yield a 0% bound value. Wells containing no small molecule inhibitor added served as 100% bound. […]

Experiment [3] concerns the target HIV-1 frameshift regulatory RNA sequence (Seq I, SEQ ID NO:1). Briefly: SPR binding of immobilized dimers to RNA. Conditions: read-out: dissociation constant (Kd), affinity to the HIV-1 frameshift regulatory RNA sequence. The method, then: Graphical analysis of Surface Plasmon Resonance (SPR) data was carried out using DeltaGraph (Rockware Inc.). SPR analysis was conducted on a Reichert SR7000 refractometer using Reichert gold sensor slides that consist of a mixed self-assembled monolayer of thiol-PEG-alcohols and thio-PEG-carboxylic acids (˜9:1; PEG=polyethylene glycol). Amine functionalized small molecules were attached by […]/EDC coupling to the carboxy termini of the surface. After activating the monolayer, molecules were covalently attached through the addition of a 1 mg/mL solution of molecule in a sodium acetate buffer (20 mM, pH=5.5). Unreacted activated esters were quenched through the addition of ethanolamine. […]
To confirm this hypothesis, dissociation constants (Kd) were measured for dimers 1-1 and 1-3 by SPR (FIG. 7A) (Whitney et al., “Templated Ligand Assembly by Using G-quadruplex DNA and Dynamic Covalent Chemistry,” Angew. Chem. Int. Ed. 43:1143-1146 (2004); Lacy et al., “Influence of a Terminal Formamido Group on the Sequence Recognition of DNA by Polyamides,” J. Am. Chem. Soc. 124:2153-2163 (2002); Carrasco et al., “DNA Sequence Recognition by the Indolocarbazole Antitumor Antibiotic AT2433-B1 and Its Diastereoisomer,” Nucleic Acids Res. 30:1774-1781 (2002), each of which is hereby incorporated by reference in its entirety).
On the technique in general: In SPR one partner is held on a chip, and binding of the other changes the refractive index at the surface.

As for `CCc1nc2ccccc2cc1C(=O)N[C@@H](CSSC[C@H](NC(=O)c1cc2ccccc2nc1CC)C(=O)N1CCC[C@H]1C(=O)N[C@@H](Cc1ccccc1)C(=O)NCCCN)C(=O)N1CCC[C@H]1C(=O)N[C@@H](Cc1ccccc1)C(=O)NCCCN` [dimer 1-1], the values for the Kd in experiment [1] and in experiment [3] were above 40000 nM and 1900 nM, respectively. Besides, the “Ki, inhibition of the (CUG)n MBNL1 interaction” value in experiment [2] is listed as “do not show any inhibitory effect”.
